The values that follow are results of earlier work, collected in patent publication US20030109670A1, “Cone snail peptides” (University of Utah Research Foundation, priority 2001, published 2003).

Ends that are not written are not given here.

For data set [1] the following is noted: IBS patients.
The conditions of data set [2]: in vivo.
For data set [3] the following is noted: in vivo. The source holds these as a separate data set.

For `Cc1[nH]cnc1CN1CCc2c(c3ccccc3n2C)C1=O` [Alosteron], in data set [1], the “perception of colonic distension and gut compliance” value was “active in modifying the perception of colonic distension and gut compliance”. In addition, the “abdominal pain, colonic transit, colon compliance” value in data set [1] (phase III compound) was “reduce abdominal pain, slow colonic transit and increase colon compliance”.

As to “Contulakin-G: 16 amino acid O-linked glycopeptide from Conus geographus, agonist of neurotensin receptors (QSEEGGSNATKKPYIL; also: O-linked glycan, site not given here; UniProt Q9XYR5 51-66, looked up)”, in data set [2], the “potency in inhibiting pain relative to neurotensin” value was “significantly more potent than neurotensin”.

Turning to `CSCC[C@@H]1NC(=O)[C@H](CC(C)C)NC(=O)[C@H](CCCNC(=N)N)NC(=O)[C@H](CO)NC(=O)[C@@H]2CSSC[C@@H]3NC(=O)[C@H](CO)NC(=O)CNC(=O)[C@H]([C@@H](C)O)NC(=O)[C@H](CSSC[C@H](N)C(=O)N[C@@H](CCCCN)C(=O)NCC(=O)N[C@@H](CCCCN)C(=O)NCC(=O)N[C@@H](C)C(=O)N[C@@H](CCCCN)C(=O)N2)NC(=O)[C@H](CSSC[C@@H](C(N)=O)NC(=O)[C@H](CCCCN)NC(=O)CNC(=O)[C@H](CO)NC(=O)[C@H](CCCNC(=N)N)NC3=O)NC(=O)[C@H](CC(=O)O)NC(=O)[C@H](Cc2ccc(O)cc2)NC1=O` [ω-Conotoxin MVIIA], in data set [3], the “potency relative to morphine” value is given as “approximately 1000 times” and the “tolerance or addictive properties” value is listed as “does not produce the tolerance or addictive properties of opiates”.
